Experimental findings from ChEMBL document CHEMBL4613211, “Aurone: A biologically attractive scaffold as anticancer agent” (Eur J Med Chem, 2019) are described below.

Each structure is given as a SMILES string.

The subject of one experiment is COLO 205. Briefly: Growth inhibition of human COLO205 cells at 10 uM after 48 hrs by sulforhodamine B assay relative to control. The format is functional. Conditions: COLO 205, 48 h, read-out: GI. On the technique in general: The SRB assay estimates cell density from bound dye.
The next experiment concerns M14. Briefly: Growth inhibition of human M14 cells at 10 uM after 48 hrs by sulforhodamine B assay relative to control. In kind it is functional. The following applies: M14, 48 h, read-out: GI.
Another experiment has as its system DU-145. Briefly: Growth inhibition of human DU145 cells at 10 uM after 48 hrs by sulforhodamine B assay relative to control. The following applies: DU-145, 48 h, read-out: GI. The format is functional.
The next experiment has as its system MCF7. Briefly: Growth inhibition of human MCF7 cells at 10 uM after 48 hrs by sulforhodamine B assay relative to control. The format is functional. Conditions: MCF7, 48 h, read-out: GI.
The subject of a further experiment is SNB-19. Briefly: Growth inhibition of human SNB19 cells at 10 uM after 48 hrs by sulforhodamine B assay relative to control. The following applies: SNB-19, 48 h, read-out: GI. In kind it is functional.
A further experiment concerns SK-MEL-5. Briefly: Growth inhibition of human SK-MEL-5 cells at 10 uM after 48 hrs by sulforhodamine B assay relative to control. The format is functional. The following applies: SK-MEL-5, 48 h, read-out: GI.
A further experiment relates to MOLT-4. Briefly: Growth inhibition of human MOLT4 cells at 10 uM after 48 hrs by sulforhodamine B assay relative to control. In kind it is functional. The following applies: MOLT-4, 48 h, read-out: GI.
For another experiment, the system named is MDA-MB-231. The experiment can be described thus: Growth inhibition of human MDA-MB-231 cells at 10 uM after 48 hrs by sulforhodamine B assay relative to control. In kind it is functional. Conditions: MDA-MB-231, 48 h, read-out: GI.
In the next experiment the test system is SNB-75. Briefly: Growth inhibition of human SNB75 cells at 10 uM after 48 hrs by sulforhodamine B assay relative to control. The following applies: SNB-75, 48 h, read-out: GI. In kind it is functional.
The subject of a further experiment is SK-MEL-28. Briefly: Growth inhibition of human SK-MEL-28 cells at 10 uM after 48 hrs by sulforhodamine B assay relative to control. Conditions: SK-MEL-28, 48 h, read-out: GI. The format is functional.
In another experiment the test system is U-251. Briefly: Growth inhibition of human U251 cells at 10 uM after 48 hrs by sulforhodamine B assay relative to control. In kind it is functional. Conditions: U-251, 48 h, read-out: GI.
Another experiment relates to HOP-62. Briefly: Growth inhibition of human HOP62 cells at 10 uM after 48 hrs by sulforhodamine B assay relative to control. Conditions: HOP-62, 48 h, read-out: GI. In kind it is functional.
In a further experiment the test system is NCI-H460. The experiment can be described thus: Growth inhibition of human NCI-H460 cells at 10 uM after 48 hrs by sulforhodamine B assay relative to control. In kind it is functional. The following applies: NCI-H460, 48 h, read-out: GI.
Another experiment has as its system HT-29. The experiment can be described thus: Growth inhibition of human HT-29 cells at 10 uM after 48 hrs by sulforhodamine B assay relative to control. The format is functional. Conditions: HT-29, 48 h, read-out: GI.
Another experiment relates to PC-3. Briefly: Growth inhibition of human PC3 cells at 10 uM after 48 hrs by sulforhodamine B assay relative to control. The format is functional. Conditions: PC-3, 48 h, read-out: GI.
A further experiment concerns SN12C. The experiment can be described thus: Growth inhibition of human SN12C cells at 10 uM after 48 hrs by sulforhodamine B assay relative to control. The format is functional. The following applies: read-out: GI.
For the next experiment, the system named is A498. Briefly: Growth inhibition of human A498 cells at 10 uM after 48 hrs by sulforhodamine B assay relative to control. Conditions: A498, 48 h, read-out: GI. The format is functional.
Another experiment concerns OVCAR-8. Briefly: Growth inhibition of human OVCAR8 cells at 10 uM after 48 hrs by sulforhodamine B assay relative to control. The format is functional. Conditions: OVCAR-8, 48 h, read-out: GI.
The subject of the next experiment is A549. Briefly: Growth inhibition of human A549/ATCC cells at 10 uM after 48 hrs by sulforhodamine B assay relative to control. The format is functional. Conditions: A549, 48 h, read-out: GI.
The subject of the next experiment is UO-31. The experiment can be described thus: Growth inhibition of human UO31 cells at 10 uM after 48 hrs by sulforhodamine B assay relative to control. Conditions: UO-31, 48 h, read-out: GI. The format is functional.
Another experiment concerns NCI-H322M. Briefly: Growth inhibition of human NCI-H322M cells at 10 uM after 48 hrs by sulforhodamine B assay relative to control. In kind it is functional. Conditions: read-out: GI.
The next experiment relates to MDA-MB-435. Briefly: Growth inhibition of human MDA-MB-435 cells at 10 uM after 48 hrs by sulforhodamine B assay relative to control. The format is functional. Conditions: MDA-MB-435, 48 h, read-out: GI.
In the next experiment the test system is HOP-92. The experiment can be described thus: Growth inhibition of human HOP92 cells at 10 uM after 48 hrs by sulforhodamine B assay relative to control. The format is functional. The following applies: HOP-92, 48 h, read-out: GI.
The target in experiment [1] is Cyclin-dependent kinase 2 (Homo sapiens, UniProt P24941). The experiment can be described thus: Inhibition of CDK2 (unknown origin).

As to `COc1ccc(/C=C2\Oc3c(c(OC)c4ccoc4c3CN3CCOCC3)C2=O)cc1`, the inhibition of growth at 10 µM in the experiment on COLO 205, in the experiment on M14, with DU-145, in the experiment on MCF7, in the experiment on SNB-19 and in the experiment on SK-MEL-5 was 56.4 to 65.2% in each case. Besides, the inhibition of growth at 10 µM with MOLT-4, in the experiment with MDA-MB-231, in the experiment with SNB-75, with SK-MEL-28, in the experiment with U-251 and with HOP-62 was 56.4 to 65.2% in each case. The inhibition of growth at 10 µM in the experiment with NCI-H460, with HT-29, with PC-3, with SN12C, in the experiment with A498 and in the experiment with OVCAR-8 was 56.4 to 65.2% each time. Besides, the inhibition of growth at 10 µM with A549, in the experiment with UO-31, in the experiment on NCI-H322M, with MDA-MB-435 and in the experiment on HOP-92 was 56.4 to 65.2% in each case.

As for `COc1ccc2c(c1)O/C(=C\c1ccc(OCC(=O)Nc3ccccc3)c(OC)c1)C2=O`, the inhibition of growth at 10 µM in the experiment on COLO 205, in the experiment on M14, in the experiment with DU-145, with MCF7, in the experiment with SNB-19 and in the experiment with SK-MEL-5 was 18.9 to 27.1% each time. For the same molecule, the inhibition of growth at 10 µM with MOLT-4, in the experiment with MDA-MB-231, with SNB-75, with SK-MEL-28, in the experiment on U-251 and in the experiment with HOP-62 was 18.9 to 27.1% throughout. Also, the inhibition of growth at 10 µM with NCI-H460, with HT-29, in the experiment on PC-3, in the experiment with SN12C, in the experiment with A498 and in the experiment on OVCAR-8 was 18.9 to 27.1% each time. Besides, the inhibition of growth at 10 µM in the experiment with A549, in the experiment with UO-31, in the experiment on NCI-H322M, in the experiment with MDA-MB-435 and in the experiment on HOP-92 was 18.9 to 27.1% in each case.

A word on the IC50: it is the concentration needed to halve the response being measured. High values mean weaker potency in that assay, low ones greater potency in that assay. Take `COc1cc(/C=C2\Oc3cc4occc4c(OC)c3C2=O)ccc1OCC(=O)Nc1ccccc1`: the inhibition of growth at 10 µM in the experiment on COLO 205, in the experiment on M14, in the experiment on DU-145, in the experiment on MCF7, in the experiment with SNB-19 and with SK-MEL-5 was 67.1 to 79.6% in each case. The inhibition of growth at 10 µM in the experiment on MOLT-4, with MDA-MB-231, in the experiment on SNB-75, in the experiment on SK-MEL-28, in the experiment on U-251 and in the experiment on HOP-62 was 67.1 to 79.6% in each case. Also, the inhibition of growth at 10 µM in the experiment with NCI-H460, in the experiment with HT-29, in the experiment on PC-3, in the experiment with SN12C, in the experiment with A498 and with OVCAR-8 was 67.1 to 79.6% throughout. Moreover, the inhibition of growth at 10 µM in the experiment on A549, in the experiment on UO-31, in the experiment on NCI-H322M, with MDA-MB-435 and in the experiment with HOP-92 was 67.1 to 79.6% in each case. Besides, in experiment [1], the 50% inhibitory concentration (IC50) was 1110 nM.
